Key:
Experiment in all cases: relative viability (nuclei count vs DMSO), 5 days (fraction); higher = more cells survive
[1] = compound: COc1cc(Nc2ncc(F)c(Nc3ccc4c(n3)NC(=O)C(C)(C)O4)n2)cc(OC)c1OC [R406] + COc1cccc2cc(-c3nc([C@H]4CC[C@H](C(=O)O)CC4)n4ncnc(N)c34)[nH]c12 [OSI-027] (partner 0.5 µM)
How it was run: (§1)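 Lung cancer cell lines were seeded in 1536-well plates and dosed by pin tool the next day, with either a single drug or a fixed anchor-drug dose combined with five library-drug doses (not always all listed) spaced in √10 steps. Five days later, one step fixed the cells and stained their nuclei (final 0.05% Triton X-100, 1% formaldehyde, 1 ug/ml Hoechst), and nuclei were counted on 4× images. Relative viability is the nuclei count in treated wells divided by the count in vehicle wells, and each value is the median of duplicate plates.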

[2] = compound: COc1cc(Nc2ncc(F)c(Nc3ccc4c(n3)NC(=O)C(C)(C)O4)n2)cc(OC)c1OC [R406] + C[C@@H](Oc1cc(-c2cnn(C3CCNCC3)c2)cnc1N)c1c(Cl)ccc(F)c1Cl [Crizotinib] (partner 1 µM)
How it was run: as §1

[3] = compound: COc1cc(Nc2ncc(F)c(Nc3ccc4c(n3)NC(=O)C(C)(C)O4)n2)cc(OC)c1OC [R406] + Nc1ncn([C@H]2C[C@H](O)[C@@H](CO)O2)c(=O)n1 [Decitabine] (partner 2 µM)
How it was run: as §1

[4] = compound: O=C(/C=C/c1cccnc1)NCCCCC1CCN(C(=O)c2ccccc2)CC1 [Daporinad] + COc1cccc2cc(-c3nc([C@H]4CC[C@H](C(=O)O)CC4)n4ncnc(N)c34)[nH]c12 [OSI-027] (partner 0.5 µM)
How it was run: as §1

Cell Line | relative viability ([1]; first compound 0.08 µM) | relative viability ([1]; first compound 0.253 µM) | relative viability ([1]; first compound 0.8 µM) | relative viability ([1]; first compound 2.53 µM) | relative viability ([1]; first compound 8 µM) | relative viability ([2]; first compound 0.08 µM) | relative viability ([2]; first compound 0.253 µM) | relative viability ([2]; first compound 0.8 µM) | relative viability ([2]; first compound 2.53 µM) | relative viability ([2]; first compound 8 µM) | relative viability ([3]; first compound 0.08 µM) | relative viability ([3]; first compound 0.253 µM) | relative viability ([3]; first compound 0.8 µM) | relative viability ([3]; first compound 2.53 µM) | relative viability ([3]; first compound 8 µM) | relative viability ([4]; first compound 0.0005 µM) | relative viability ([4]; first compound 0.001581 µM) | relative viability ([4]; first compound 0.005 µM) | relative viability ([4]; first compound 0.01581 µM)
LXF-289 | 0.805 | 0.84 | 0.931 | 0.377 | 0.487 | 0.739 | 0.918 | 0.833 | 0.832 | 0.259 | 0.386 | 0.372 | 0.406 | 0.405 | 0.396 | 0.731 | 0.855 | 0.89 | 0.89
PC-3 [JPC-3] | 0.854 | 0.872 | 0.932 | 0.494 | 0.427 | 1.04 | 1 | 1.02 | 0.98 | 0.885 | 0.912 | 0.898 | 0.974 | 0.747 | 0.62 | 0.802 | 0.707 | 0.874 | 0.823
NCI-H661 | 0.674 | 0.819 | 0.702 | 0.501 | 0.38 |  | 1.01 | 1.02 | 0.882 | 1.14 | 0.478 | 0.531 | 0.615 | 0.473 | 0.405 | 0.811 | 0.719 | 0.74 | 0.341
NCI-H1666 | 0.829 | 0.851 | 0.88 | 0.829 | 0.642 | 0.92 | 1.3 | 0.973 | 0.849 | 0.461 | 0.672 | 0.792 | 0.637 | 0.936 | 0.74 | 0.822 | 0.989 | 0.826 | 0.896
NCI-H2085 | 0.863 | 0.968 | 0.861 | 0.259 | 0.345 | 0.841 | 0.974 | 0.785 | 0.887 | 0.566 | 0.592 | 0.58 | 0.492 | 0.544 | 0.451 | 0.695 | 0.773 | 0.817 | 0.852
NCI-H1734 | 0.604 | 0.684 | 0.647 | 0.381 | 0.374 | 0.707 | 0.814 | 0.654 | 0.542 | 0.292 | 0.521 | 0.524 | 0.551 | 0.404 | 0.399 | 0.569 | 0.676 | 0.674 | 0.527
NCI-H2126 | 0.624 | 0.78 | 0.661 | 0.606 | 0.641 | 0.965 | 1.11 | 1.01 | 1.02 | 0.995 | 0.618 | 0.629 | 0.638 | 0.545 | 0.582 | 0.718 | 0.592 | 0.689 | 0.756
EMC-BAC-2 | 0.373 | 0.416 | 0.407 | 0.232 | 0.203 | 0.747 | 0.855 | 0.796 | 0.738 | 0.262 | 0.942 | 1.03 | 1.06 | 0.974 | 0.855 | 0.393 | 0.435 | 0.326 | 0.202
NCI-H1993 | 0.546 | 0.521 | 0.55 | 0.515 | 0.552 | 0.933 | 0.866 | 0.809 | 0.75 | 0.661 | 0.623 | 0.634 | 0.599 | 0.537 | 0.542 | 0.618 | 0.508 | 0.55 | 0.542
NCI-H596 | 0.793 | 0.682 | 0.903 | 0.329 | 0.269 | 0.837 | 1.1 | 1.09 | 0.796 | 0.245 | 0.88 | 0.994 | 1.01 | 0.91 | 0.372 | 0.553 | 0.674 | 0.758 | 0.656
NCI-H650 | 0.453 | 0.553 | 0.465 | 0.45 | 0.344 | 0.809 | 0.848 | 0.713 | 0.59 | 0.532 | 0.316 | 0.34 | 0.34 | 0.297 | 0.354 | 0.477 | 0.415 | 0.525 | 0.626
NCI-H1792 | 0.642 | 0.772 | 0.784 | 0.37 | 0.378 | 0.842 | 1.03 | 1.03 | 0.925 | 0.884 | 0.558 | 0.727 | 0.59 | 0.515 | 0.352 | 0.668 | 0.655 | 0.541 | 0.893
SW 1573 | 0.603 | 0.783 | 0.869 | 0.493 | 0.224 | 0.747 | 1 | 0.769 | 0.653 | 0.579 | 0.398 | 0.579 | 0.604 | 0.186 | 0.172 | 0.564 | 0.705 | 0.581 | 0.455
ChaGo-K-1 | 0.606 | 0.565 | 0.672 | 0.386 | 0.471 | 1.1 | 0.936 | 1.23 | 1.01 | 0.702 | 0.491 | 0.546 | 0.557 | 0.504 | 0.506 | 0.673 | 0.597 | 0.636 | 0.471
NCI-H1650 | 0.719 | 0.644 | 0.637 | 0.132 | 0.137 | 1.05 | 1.09 | 0.961 | 0.327 | 0.139 | 0.475 | 0.407 | 0.359 | 0.413 | 0.411 | 0.637 | 0.655 | 0.733 | 0.825

Reference: the supplement of paper PMC10307832
